According to patent US11319322B2, “Substituted aryl ether compound, preparation method thereof, pharmaceutical composition and use thereof” (Xiamen University, priority 2017, dated 2022):

How the values were obtained:
CCDC6-RET-BaF3 = molecular target: T1, CCDC6-RET-BaF3 (Homo sapiens, UniProt P07949); assay: Growth inhibition of CCDC6-RET-BaF3 cells stably transfected with kinase (MTS); assay type: cell-based; conditions: 48 h, read-out: CCDC6-RET (IC50/nM)
T1 construct: fused on or other part: Q16204 (Coiled-coil domain-containing protein 6)
Protocol: (§1) Growth inhibitory activity of compounds on cell lines stably transfected with kinase
(§2) The activity of compounds against kinase RET is evaluated by their effect of inhibiting growth of cell lines stably transfected with kinase CCDC6-RET-BaF3, KIF5B-RET-BaF3, and wild-type BaF3 (Proc. Natl. Acad. Sci. USA., 2006, 103, 3153-8.). The growth of the cell lines stably transfected with kinase CCDC6-RET-BaF3, KIF5B-RET-BaF3 depends on their kinase activity. If a compound can inhibit the activity of the kinase RET per se or the activity of the RET signaling pathway, the compound can inhibit the growth of BaF3 cells stably transfected with kinase. […] Therefore, a larger ratio between IC50 of a compound to wild-type BaF3 and IC50 of the compound to the cell lines stably transfected with kinase CCDC6-RET-BaF3, KIF5B-RET-BaF3 indicates better targeting.
(§3) The specific test method is given as follows:
(§4) 1) Medium: DMEM (Dulbecco's modified eagle medium) or RPMI 1640 (containing 10% fetal bovine serum, 100 μg/mL ampicillin, 100 μg/mL streptomycin).
(§5) 2) Reagents: MTS reaction solution (containing 2 mg/mL of MTS [3-(4,5-dimethylthiazol-2-yl)-5-(3-carboxymethoxyphenyl)-2-(4-sulfophenyl)-2H-tetrazolium, inner Salt]; 100 μg/mL PES (phenazine […])).
(§6) 3) Compound test: cells stably transfected with kinase (CCDC6-RET-BaF3, KIF5B-RET-BaF3) or wild-type BaF3 cells (2×10^4 cells/well) were incubated into a 96-well culture plate, the volume of cell culture fluid was 90 μL, and then 10 μL of the compound at each gradient concentration was added (the highest concentration was 10 μM, which was diluted stepwise by ⅓, and 8 concentration points were set in total; the system contained 0.1% DMSO (dimethyl sulfoxide)). The cell plate with uniformly mixed compound was cultured in a cell culture incubator (37° C.; 5% CO2) for 48 h, then 20 μL of MTS reaction solution was added, uniformly mixed and incubated in the cell culture incubator (37° C.; 5% CO2) for 1-4 hr, OD values at 490 nm were measured by a microplate reader (VARIOSKAN FLASH, Thermo). Three parallels were set in each group of experiments, with 0.1% (a final concentration) DMSO as a negative control, and a medium without cells or compounds as a blank control. The cell growth inhibition rate was calculated by the following formula: Cell growth inhibition rate %=1−(ODexperimental group−ODblank group)/(ODnegative group−ODblank group)×100%
(§7) 4) IC50 calculation: The semi-inhibitory concentration of the compound acting on cell growth was calculated using GradPad Prism 5 software according to the measured cell growth inhibition rate.

KIF5B-RET-BaF3 = molecular target: T2, KIF5B-RET-BaF3 (Homo sapiens, UniProt P07949); assay: Growth inhibition of KIF5B-RET-BaF3 cells stably transfected with kinase (MTS); assay type: cell-based; conditions: 48 h, read-out: KIF5B-RET (IC50/nM)
T2 construct: fused on or other part: P33176 (Kinesin-1 heavy chain)
Protocol: as §1, §2, §3, §4, §5, §6, §7

T1 sequence (P07949 whole entry, change not shown, the tested form may be a part): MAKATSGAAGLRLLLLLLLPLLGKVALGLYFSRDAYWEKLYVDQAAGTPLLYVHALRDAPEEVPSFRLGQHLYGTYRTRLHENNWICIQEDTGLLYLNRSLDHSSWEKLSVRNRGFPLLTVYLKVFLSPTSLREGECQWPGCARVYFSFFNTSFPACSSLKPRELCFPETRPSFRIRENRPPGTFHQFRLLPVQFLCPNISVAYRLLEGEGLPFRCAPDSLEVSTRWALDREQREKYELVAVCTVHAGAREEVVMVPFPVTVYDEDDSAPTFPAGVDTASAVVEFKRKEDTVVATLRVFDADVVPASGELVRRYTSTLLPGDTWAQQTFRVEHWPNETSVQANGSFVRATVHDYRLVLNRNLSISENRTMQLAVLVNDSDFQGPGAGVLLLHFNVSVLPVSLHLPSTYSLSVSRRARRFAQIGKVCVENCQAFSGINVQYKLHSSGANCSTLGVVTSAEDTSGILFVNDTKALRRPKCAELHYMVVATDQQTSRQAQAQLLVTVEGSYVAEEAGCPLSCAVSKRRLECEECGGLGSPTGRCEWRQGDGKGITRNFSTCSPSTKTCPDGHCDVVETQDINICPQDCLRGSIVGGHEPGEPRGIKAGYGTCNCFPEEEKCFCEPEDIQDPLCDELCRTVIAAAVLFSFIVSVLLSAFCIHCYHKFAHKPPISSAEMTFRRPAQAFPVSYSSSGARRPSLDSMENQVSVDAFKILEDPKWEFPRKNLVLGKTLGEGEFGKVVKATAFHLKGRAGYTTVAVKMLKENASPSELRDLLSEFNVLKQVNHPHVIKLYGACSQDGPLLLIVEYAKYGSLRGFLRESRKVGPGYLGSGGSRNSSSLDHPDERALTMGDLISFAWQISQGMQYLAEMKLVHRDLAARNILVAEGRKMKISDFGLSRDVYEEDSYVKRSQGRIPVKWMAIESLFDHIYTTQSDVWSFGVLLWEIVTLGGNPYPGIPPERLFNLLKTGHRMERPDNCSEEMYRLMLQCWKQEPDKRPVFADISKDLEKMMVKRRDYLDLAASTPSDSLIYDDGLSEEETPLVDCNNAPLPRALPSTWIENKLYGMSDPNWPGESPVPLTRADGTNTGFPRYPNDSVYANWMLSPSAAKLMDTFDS
T2 sequence (P07949 whole entry, change not shown, the tested form may be a part): as above

| Structure (SMILES) | GI50 (CCDC6-RET-BaF3) | GI50 (KIF5B-RET-BaF3) |
| --- | --- | --- |
| Cc1ccc(C(=O)Nc2ccc(CN3CCN(C)CC3)c(C(F)(F)F)c2)cc1Oc1nc(-c2cccnc2)nc2c1ncn2C [I-m-2] | 710 nM | 1300 nM |
| Cc1ccc(C(=O)Nc2ccc(CN3CCN(C)CC3)c(C(F)(F)F)c2)cc1Oc1nc(N2CC(C)OC(C)C2)nc2c1cnn2C (stereo not drawn) [II-m-16] | 384 nM | 84.6 nM |
| CN1CCN(Cc2cc(NC(=O)c3cccc(Oc4nc(-c5cccnc5)nc5c4cnn5C)c3)cc(C(F)(F)F)c2)CC1 [II-p-1] | 268 nM | 251 nM |
| CN1CCN(Cc2ccc(NC(=O)c3cc(Oc4nc(-c5ccc(N)cc5)nc5c4ncn5C)ccc3Cl)cc2C(F)(F)F)CC1 [I-o-9] | 1390 nM | 1500 nM |
| CN1CCN(Cc2ccc(C(=O)Nc3cccc(Oc4nc(-c5cccnc5)nc5c4cnn5C)c3)cc2C(F)(F)F)CC1 [II-h-1] | 1110 nM | 953 nM |
| CN1CCN(Cc2ccc(NC(=O)c3cc(Oc4nc(-c5ccccc5)nc5c4ncn5C)ccc3Cl)cc2C(F)(F)F)CC1 [I-o-3] | 1380 nM | 1380 nM |
| Cc1ccc(Oc2nc(-c3ccc(Cl)cc3)nc3nn(C)cc23)cc1C(=O)Nc1ccc(CN2CCN(C)CC2)c(C(F)(F)F)c1 [IV-n-5] | 2960 nM | 2320 nM |
| Cc1ccc(C(=O)Nc2cc(CN3CCN(C)CC3)cc(C(F)(F)F)c2)cc1Oc1nc(-c2ccncc2)nc2c1cnn2C [II-s-2] | 188 nM | 355 nM |
| Cc1ccc(C(=O)Nc2ccc(CN3CCN(C)CC3)c(C(F)(F)F)c2)cc1Oc1nc(-c2ccsc2)nc2c1cnn2C [II-m-10] | 449 nM | 36.4 nM |
| Cc1ccc(NC(=O)c2ccc(CN3CCN(C)CC3)c(C(F)(F)F)c2)cc1Oc1nc(-c2ccncc2)nc2ccn(C)c12 [III-i-4] | 2020 nM | 1330 nM |
| Cc1ccc(C(=O)Nc2ccc(CN3CCN(C)CC3)c(C(F)(F)F)c2)cc1Oc1nc(-c2ccoc2)nc2ccn(C)c12 [III-m-17] | 3150 nM | 2760 nM |
| CN1CCN(Cc2ccc(NC(=O)c3cc(Oc4nc(-c5cccc(Cl)c5)nc5c4ncn5C)ccc3Cl)cc2C(F)(F)F)CC1 [I-o-4] | 1400 nM | 1410 nM |
| Cc1ccc(C(=O)Nc2ccc(CN3CCN(C)CC3)c(C(F)(F)F)c2)cc1Oc1nc(-c2ccncc2)nc2cc[nH]c12 [III-m-2] | 3630 nM | 1310 nM |
| Cc1ccc(Oc2nc(-c3ccoc3)nc3c2cnn3C)cc1NC(=O)c1ccc(CN2CCN(C)CC2)c(C(F)(F)F)c1 [II-j-3] | 1420 nM | 3210 nM |
| Cc1ccc(Oc2cc(-c3ccncc3)nc3[nH]ccc23)cc1C(=O)Nc1cc(CN2CCN(C)CC2)cc(C(F)(F)F)c1 [V-r-1] | 2960 nM | 2810 nM |
| Cc1ccc(Oc2nc(-c3cccc(N)c3)nc3c2ncn3C)cc1C(=O)Nc1ccc(CN2CCN(C)CC2)c(C(F)(F)F)c1 [I-n-9] | 1550 nM | 1480 nM |
| Cc1ccc(Oc2cc(-c3cccnc3)nc3sccc23)cc1NC(=O)c1ccc(CN2CCN(C)CC2)c(C(F)(F)F)c1 [VII-j-1] | 811 nM | 1280 nM |
| Cc1ccc(NC(=O)c2ccc(CN3CCN(C)CC3)c(C(F)(F)F)c2)cc1Oc1nc(-c2ccncc2)nc2cc[nH]c12 [III-i-2] | 1400 nM | 774 nM |
| Cc1ccc(C(=O)Nc2ccc(CN3CCN(C)CC3)c(C(F)(F)F)c2)cc1Oc1nc(-c2ccncc2)nc2c1ncn2C [I-m-3] | 447 nM | 1050 nM |
| CCC(=O)NCC1CCN(c2ccc(NC(=O)c3ccc(C)c(Oc4nc(-c5cccnc5)nc5[nH]ncc45)c3)cc2C(F)(F)F)CC1 [II-v-16] | 2490 nM | 3070 nM |
| Cc1ccc(C(=O)Nc2ccc(CN3CCN(C)CC3)c(C(F)(F)F)c2)cc1Oc1nc(Nc2ccccc2)nc2c1cnn2C [II-m-12] | 123 nM | 69.7 nM |
| CN1CCN(Cc2ccc(NC(=O)c3cc(Oc4nc(-c5ccncc5)nc5nn(C)cc45)ccc3Cl)cc2C(F)(F)F)CC1 [IV-o-2] | 88.6 nM | 12.1 nM |
| CN1CCN(Cc2ccc(NC(=O)c3cc(Oc4nc(-c5ccc(O)cc5)nc5c4ncn5C)ccc3Cl)cc2C(F)(F)F)CC1 [I-o-7] | 903 nM | 1210 nM |

| Structure (SMILES) | GI50 (CCDC6-RET-BaF3) | GI50 (KIF5B-RET-BaF3) |
| --- | --- | --- |
| Cc1ccc(-c2nc(Oc3ccc(Cl)c(NC(=O)c4ccc(CN5CCN(C)CC5)c(C(F)(F)F)c4)c3)c3[nH]ccc3n2)cc1 [III-k-15] | 2200 nM | 2380 nM |
| CCC(=O)NC1CCN(c2ccc(NC(=O)c3ccc(C)c(Oc4nc(-c5cccnc5)nc5c4cnn5C)c3)cc2C(F)(F)F)CC1 [II-v-12] | 364 nM | 118 nM |
| Cc1ccc(C(=O)Nc2ccc(CN3CCN(C)CC3)c(C(F)(F)F)c2)cc1Oc1nc(-c2cccc(O)c2)nc2c1cnn2C [II-m-7] | 178 nM | 28.3 nM |
| CC(=O)NC1CCN(c2ccc(NC(=O)c3ccc(C)c(Oc4nc(-c5ccncc5)nc5c4cnn5C)c3)cc2C(F)(F)F)CC1 [II-v-13] | 533 nM | 587 nM |
| Cc1ccc(Oc2nc(-c3cccnc3)nc3cc[nH]c23)cc1NC(=O)c1ccc(CN2CCN(C)CC2)c(C(F)(F)F)c1 [III-j-1] | 5940 nM | 3250 nM |
| CN1CCN(Cc2ccc(NC(=O)c3cccc(Oc4cc(-c5cccnc5)nc5sccc45)c3)cc2C(F)(F)F)CC1 [VII-l-1] | 1020 nM | 1350 nM |
| Cc1ccc(Oc2nc(-c3ccncc3)nc3c2ncn3C(C)C)cc1C(=O)Nc1ccc(CN2CCN(C)CC2)c(C(F)(F)F)c1 [I-n-14] | 163 nM | 47 nM |
| Cc1ccc(C(=O)Nc2ccc(CN3CCN(C)CC3)c(C(F)(F)F)c2)cc1Oc1nc(-c2ccncc2)nc2c1cnn2C [II-m-2] | 30.2 nM | 17.8 nM |
| Cc1ccc(Oc2nc(-c3ccc(O)cc3)nc3c2ncn3C)cc1C(=O)Nc1ccc(CN2CCN(C)CC2)c(C(F)(F)F)c1 [I-n-8] | 1210 nM | 1330 nM |
| Cc1ccc(C(=O)Nc2ccc(CN3CCN(C)CC3)c(C(F)(F)F)c2)cc1Oc1nc(-c2ccc(Cl)cc2)nc2c1cnn2C [II-m-6] | 696 nM | 114 nM |
| CCC(=O)NCC1CCN(c2ccc(NC(=O)c3ccc(C)c(Oc4nc(-c5ccncc5)nc5[nH]ncc45)c3)cc2C(F)(F)F)CC1 [II-v-17] | 900 nM | 1040 nM |
| Cc1ccc(Oc2nc(-c3ccncc3)nc3c2ncn3C)cc1NC(=O)c1ccc(CN2CCN(C)CC2)c(C(F)(F)F)c1 [I-j-1] | 0.741 nM | 2.74 nM |
| CCS(=O)(=O)NC1CCN(c2ccc(NC(=O)c3ccc(C)c(Oc4nc(-c5ccncc5)nc5ccn(C)c45)c3)cc2C(F)(F)F)CC1 [III-v-11] | 3330 nM | 1460 nM |
| Cc1ccc(NC(=O)c2ccc(CN3CCN(C)CC3)c(C(F)(F)F)c2)cc1Oc1ncnc2c1cnn2C [II-i-3] | 881 nM | 1040 nM |
| CN1CCN(Cc2cc(NC(=O)c3cccc(Oc4nc(-c5ccncc5)nc5c4cnn5C)c3)cc(C(F)(F)F)c2)CC1 [II-p-2] | 458 nM | 521 nM |
| Cc1ccc(Oc2nc(-c3cccnc3)nc3ccn(C)c23)cc1NC(=O)c1ccc(CN2CCN(C)CC2)c(C(F)(F)F)c1 [III-j-5] | 4260 nM | 3100 nM |
| Cc1ccc(Oc2nc(-c3ccoc3)nc3c2ncn3C)cc1C(=O)Nc1ccc(CN2CCN(C)CC2)c(C(F)(F)F)c1 [I-n-11] | 1200 nM | 1960 nM |
| Cc1ccc(C(=O)Nc2ccc(CN3CCN(C)CC3)c(C(F)(F)F)c2)cc1Oc1nc(N2CCN(C)CC2)nc2c1cnn2C [II-m-17] | 1100 nM | 160 nM |
| CN1CCN(Cc2ccc(NC(=O)c3cccc(Oc4nc(-c5cccnc5)nc5ccn(C)c45)c3)cc2C(F)(F)F)CC1 [III-l-3] | 1400 nM | 1540 nM |
| Cc1ccc(C(=O)Nc2ccc(CN3CCN(C)CC3)c(C(F)(F)F)c2)cc1Oc1nc(-c2cccc(Cl)c2)nc2c1cnn2C [II-m-5] | 807 nM | 320 nM |
| CN1CCN(Cc2ccc(NC(=O)c3cc(Oc4nc(-c5ccncc5)nc5c4cnn5C)ccc3Cl)cc2C(F)(F)F)CC1 [II-o-2] | 108 nM | 130 nM |
| Cc1ccc(C(=O)Nc2ccc(CN3CCN(C)CC3)c(C(F)(F)F)c2)cc1Oc1nc(-c2ccc(O)cc2)nc2c1cnn2C [II-m-8] | 166 nM | 56.9 nM |
